From ChEMBL document CHEMBL1201862, “PubChem BioAssay data set” (2004)
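Each compound was tested at five concentrations against cells in 96-well plates for 48 hours. GI50 marks 50% less growth.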 Active and inactive are the calls of the source. Rule as the data show it: active = GI50 up to about 1.1 µM and inactive = higher.

Experiments:
Test in all cases: DTP human tumour cell line panel, 48 h
RPMI-8226 = system: RPMI-8226
Hs-578T = system: Hs-578T
KM12 = system: KM12
M14 = system: M14
NCI/ADR-RES = system: NCI/ADR-RES
EKVX = system: EKVX
SF-539 = system: SF-539
SK-OV-3 = system: SK-OV-3
K562 = system: K562
MOLT-4 = system: MOLT-4
NCI-H522 = system: NCI-H522
UACC-62 = system: UACC-62
SN12C = system: SN12C
MCF7 = system: MCF7
BT-549 = system: BT-549
NCI-H23 = system: NCI-H23
PC-3 = system: PC-3
RXF 393 = system: RXF 393
HL-60 = system: HL-60
SK-MEL-5 = system: SK-MEL-5
SK-MEL-28 = system: SK-MEL-28
NCI-H460 = system: NCI-H460
CCRF-CEM = system: CCRF-CEM
OVCAR-4 = system: OVCAR-4
IGROV-1 = system: IGROV-1
SF-268 = system: SF-268
ACHN = system: ACHN
OVCAR-5 = system: OVCAR-5
SK-MEL-2 = system: SK-MEL-2
MDA-MB-231 = system: MDA-MB-231
SNB-19 = system: SNB-19
SW-620 = system: SW-620
MDA-N = system: MDA-N
HOP-92 = system: HOP-92
NCI-H226 = system: NCI-H226
CAKI-1 = system: CAKI-1
SNB-75 = system: SNB-75
HOP-62 = system: HOP-62
HCC 2998 = system: HCC 2998
HCT-15 = system: HCT-15
TK-10 = system: TK-10
OVCAR-8 = system: OVCAR-8
UO-31 = system: UO-31
LOX IMVI = system: LOX IMVI
DU-145 = system: DU-145
UACC-257 = system: UACC-257
U-251 = system: U-251
HCT-116 = system: HCT-116
786-0 = system: 786-0
OVCAR-3 = system: OVCAR-3
SF-295 = system: SF-295
T47D = system: T47D
HT-29 = system: HT-29
SR = system: SR
MDA-MB-435 = system: MDA-MB-435
COLO 205 = system: COLO 205
A549 = system: A549
Malme-3M = system: Malme-3M

SMILES: N=C(N)NS(=O)(=O)c1ccc(NC(=O)c2cccc3c(NNc4ccc(S(N)(=O)=O)cc4)c4ccccc4nc23)cc1
- GI50 (RPMI-8226): 39.6 µM (inactive)
- GI50 (Hs-578T): 59.4 µM (inactive)
- GI50 (KM12): 50.7 µM (inactive)
- GI50 (M14): > 100 µM (inactive)
- GI50 (NCI/ADR-RES): > 100 µM (inactive)
- GI50 (EKVX): 47.4 µM (inactive)
- GI50 (SF-539): > 100 µM (inactive)
- GI50 (SK-OV-3): > 100 µM (inactive)
- GI50 (K562): 26.6 µM (inactive)
- GI50 (MOLT-4): 28.2 µM (inactive)
- GI50 (NCI-H522): 41.1 µM (inactive)
- GI50 (UACC-62): > 100 µM (inactive)
- GI50 (SN12C): 99.3 µM (inactive)
- GI50 (MCF7): 26.4 µM (inactive)
- GI50 (BT-549): 74.5 µM (inactive)
- GI50 (NCI-H23): > 100 µM (inactive)
- GI50 (PC-3): 59.7 µM (inactive)
- GI50 (RXF 393): > 100 µM (inactive)
- GI50 (HL-60): 30.6 µM (inactive)
- GI50 (SK-MEL-5): 55.6 µM (inactive)
- GI50 (SK-MEL-28): > 100 µM (inactive)
- GI50 (NCI-H460): 83.4 µM (inactive)
- GI50 (CCRF-CEM): 34.5 µM (inactive)
- GI50 (OVCAR-4): > 100 µM (inactive)
- GI50 (IGROV-1): 55.5 µM (inactive)
- GI50 (SF-268): 73.5 µM (inactive)
- GI50 (ACHN): 66.5 µM (inactive)
- GI50 (OVCAR-5): > 100 µM (inactive)
- GI50 (SK-MEL-2): > 100 µM (inactive)
- GI50 (MDA-MB-231): 27.5 µM (inactive)
- GI50 (SNB-19): > 100 µM (inactive)
- GI50 (SW-620): 45.4 µM (inactive)
- GI50 (MDA-N): > 100 µM (inactive)
- GI50 (HOP-92): 25.3 µM (inactive)
- GI50 (NCI-H226): > 100 µM (inactive)
- GI50 (CAKI-1): > 100 µM (inactive)
- GI50 (SNB-75): > 100 µM (inactive)
- GI50 (HOP-62): > 100 µM (inactive)
- GI50 (HCC 2998): > 100 µM (inactive)
- GI50 (HCT-15): 38.9 µM
- GI50 (TK-10): > 100 µM (inactive)
- GI50 (OVCAR-8): 66.1 µM (inactive)
- GI50 (UO-31): > 100 µM (inactive)
- GI50 (LOX IMVI): 20.4 µM (inactive)
- GI50 (DU-145): > 100 µM (inactive)
- GI50 (UACC-257): > 100 µM (inactive)
- GI50 (U-251): 44.2 µM (inactive)
- GI50 (HCT-116): 53.8 µM (inactive)
- GI50 (786-0): 59.4 µM (inactive)
- GI50 (OVCAR-3): 36.1 µM (inactive)
- GI50 (SF-295): > 100 µM (inactive)
- GI50 (T47D): 18.7 µM (inactive)
- GI50 (HT-29): 47 µM (inactive)
- GI50 (SR): 35 µM (inactive)
- GI50 (MDA-MB-435): 51.6 µM (inactive)
- GI50 (COLO 205): > 100 µM (inactive)
- GI50 (A549): > 100 µM (inactive)
- GI50 (Malme-3M): 34.8 µM (inactive)

SMILES: N#Cc1c(-c2ccccc2)[nH]c2ccc(Cl)cc2c1=O
- GI50 (RPMI-8226): > 100 µM (inactive)
- GI50 (Hs-578T): 34.8 µM (inactive)
- GI50 (KM12): > 100 µM (inactive)
- GI50 (M14): > 100 µM (inactive)
- GI50 (NCI/ADR-RES): 92.9 µM (inactive)
- GI50 (EKVX): > 100 µM (inactive)
- GI50 (SF-539): > 100 µM (inactive)
- GI50 (SK-OV-3): 25.1 µM (inactive)
- GI50 (K562): > 100 µM (inactive)
- GI50 (MOLT-4): > 100 µM (inactive)
- GI50 (NCI-H522): 26.4 µM (inactive)
- GI50 (UACC-62): 57.3 µM (inactive)
- GI50 (SN12C): > 100 µM (inactive)
- GI50 (MCF7): > 100 µM (inactive)
- GI50 (BT-549): 22.5 µM (inactive)
- GI50 (NCI-H23): 92.5 µM (inactive)
- GI50 (PC-3): > 100 µM (inactive)
- GI50 (RXF 393): 20.7 µM (inactive)
- GI50 (HL-60): > 100 µM (inactive)
- GI50 (SK-MEL-5): > 100 µM (inactive)
- GI50 (SK-MEL-28): > 100 µM (inactive)
- GI50 (NCI-H460): > 100 µM (inactive)
- GI50 (CCRF-CEM): > 100 µM (inactive)
- GI50 (OVCAR-4): > 100 µM (inactive)
- GI50 (IGROV-1): 63.1 µM (inactive)
- GI50 (SF-268): 36.1 µM (inactive)
- GI50 (ACHN): > 100 µM (inactive)
- GI50 (OVCAR-5): > 100 µM (inactive)
- GI50 (SK-MEL-2): 16.7 µM (inactive)
- GI50 (MDA-MB-231): 21.7 µM (inactive)
- GI50 (SNB-19): 22.9 µM (inactive)
- GI50 (SW-620): > 100 µM (inactive)
- GI50 (MDA-N): > 100 µM (inactive)
- GI50 (HOP-92): 22.9 µM (inactive)
- GI50 (NCI-H226): 38 µM (inactive)
- GI50 (CAKI-1): 1.62 µM (inactive)
- GI50 (SNB-75): 44.7 µM (inactive)
- GI50 (HOP-62): 25.8 µM (inactive)
- GI50 (HCC 2998): > 100 µM (inactive)
- GI50 (HCT-15): > 100 µM
- GI50 (TK-10): 29.7 µM (inactive)
- GI50 (OVCAR-8): 86.9 µM (inactive)
- GI50 (UO-31): 22.4 µM (inactive)
- GI50 (LOX IMVI): > 100 µM (inactive)
- GI50 (DU-145): > 100 µM (inactive)
- GI50 (UACC-257): > 100 µM (inactive)
- GI50 (U-251): 28.2 µM (inactive)
- GI50 (HCT-116): 81.8 µM (inactive)
- GI50 (786-0): 30.5 µM (inactive)
- GI50 (OVCAR-3): > 100 µM (inactive)
- GI50 (SF-295): 22.4 µM (inactive)
- GI50 (T47D): > 100 µM (inactive)
- GI50 (HT-29): > 100 µM (inactive)
- GI50 (SR): > 100 µM (inactive)
- GI50 (MDA-MB-435): > 100 µM (inactive)
- GI50 (COLO 205): > 100 µM (inactive)
- GI50 (A549): 13 µM (inactive)
- GI50 (Malme-3M): > 100 µM (inactive)
